This is an account of results in patent US20250195525A1, “ANGIOTENSIN II RECEPTOR ANTAGONIST FOR THE PREVENTION OF SYSTEMIC DISEASES IN CATS” (Boehringer Ingelheim Vetmedica GmbH, priority 2023, published 2025).

For series [1] the following is noted: human patients, high dose of 160 mg daily (80 mg twice daily); cited from earlier work.
Series [2] relates to cats with CKD. In words: placebo controlled field trial in client-owned cats with CKD: progression of SBP. The class given is in vivo, cat. Particulars: 1 mg/kg body weight. The protocol:
This prospective, placebo controlled, randomized, double-blind, multicenter, multinational field study enrolled client-owned cats that were presented in the normal course of veterinary practice to evaluate safety and efficacy of telmisartan on progression-free survival time in cats with CKD compared to placebo. In this study 545 cats were randomly assigned to telmisartan (1 mg/kg body weight) or placebo in a ratio of 1:1.
At least two weeks before the start of the field study, creatinine value and Urine Specific Gravity (USG) were determined. Only cats were included in the study which were diagnosed with CKD, meaning a creatinine value ≥1.9 mg/dl (168 μmol/L) and <5.0 mg/dL (440 μmol/L) and a USG of <1.035.
At all visit timepoints, SBP was recorded prior to performing any other procedures scheduled for the animal during the visit. • 5 SBP readings were taken following a ≥10 minute acclimation period. • The highest and the lowest SBP were excluded and a mean of the remaining 3 SBPs was used to obtain the mean SBP for that visit. Visits were scheduled on Day 0, 30, 90, 180, 270, 365, 450, 540, 630, 730, 810, 900, 990, 1080, 1170, 1260, 1350, 1440 (each ±7) and, if applicable, additional visits every 3 months (+7 days).

The nature of series [3]: in vivo.
For series [4], the system named is angiotensin II receptor 1. Put plainly: Angiotensin II induced blood pressure response in laboratory cats. The class given is in vivo, cat. An excerpt:
Moreover, a study in laboratory cats was established to investigate the Angiotensin II induced increase in diastolic blood pressure prior to and after administration of telmisartan. This test was established to estimate the potency as well as the duration of action of sartans, in particular of telmisartan in cats.

The conditions of series [5]: cat, in vivo.

As a reminder, the AUC is concentration integrated over time. Read a high AUC as more exposure. Take `CCCc1nc2c(C)cc(-c3nc4ccccc4n3C)cc2n1Cc1ccc(-c2ccccc2C(=O)O)cc1` [Telmisartan, 4′-[2-n-propyl-4-methyl-6-(1-methylbenzimidazol-2-yl)-benzimidazol-1-ylmethyl]-biphenyl-2-carboxylic acid]: the “plasma level (Cmax±SD)” value in series [1] is “about 2800±2400 ng/ml”. Also, the “Time to event for progression of SBP (up to 160 mmHg), median no. of days” value in series [2] came out at 446.0 days. Besides, the “delay in reaching the endpoint of SBP of 160 mmHg versus placebo (median number of days)” value in series [2] (compared to placebo) turned out to be 84.5 days. Further, the “Mean probability for progression of SBP” value in series [2] (progression = SBP ≥160 mmHg and increase of >20 mmHg compared to baseline) is recorded as 0.035. The figures for the AUC in series [3] (iv) and in series [3] (po) were 385 ng·h/mL and 150 ng·h/mL, respectively. The “inhibition of the blood pressure response” value in series [4] (cats, doses of less than 0.05 mg per kg body weight, majority of the tested cats) is on record as “about 75%”. Besides, the “diastolic blood pressure responses to increasing intravenous doses of Angiotensin II” value in series [4] (laboratory cats, approximately 24 hours after the last oral dosing, target dose compared with Placebo) was “significantly reduced”. In series [5], the “mean V/f oral (second mention, after the intravenous values)” value was 8.8 L/kg. In series [5] (po), the “mean V/f oral” value stood at 20.4 L/kg.
